Tests used:
[1] = system: RGCs in rat retinal explants; experiment: NMDA-treated retinal explants, Brn-3a-immunopositive RGC density on flat-mounts; conditions: for RGC density (Brn-3a-immunopositive): mean±s.e.m.
Method: E) Quantification of RGC densities from whole flat-mounted retinal explants using the automated counting platform. […] The scale bar represents 100 μm.
At the end of the incubation, RGCs were immunolabeled with an anti-Brn-3a antibody.

[2] = system: optic nerve; conditions: treated infants; Frisen and Malmgren 2003, Viestenz et al. 2003, Buncic et al. 2004; cited from earlier work
[3] = system: retinal ganglion cells; experiment: Retinal ganglion cell degeneration induced by vigabatrin in young rats, Brn3A-positive RGC count in retinal sections; assay type: in vivo, Wistar rats
Method: Breeds of Wistar rats Rj Wi IOPS Han were purchased from Janvier (Le Genest-St-Isle, France). Vigabatrin (VGB) dissolved in 0.9% NaCl was administered at 0.6 mg/jour (6 mg/ml, 0.1 ml) to rats by daily intraperitoneal injection for 25 days from age 4 days. These daily doses (50 mg/kg for rats of 12 g) are in-line with those described for the treatment of epilepsy (adult patients: […]; children:50-75 mg/kg; or infants: 100-150 mg/kg) (Aicardi et al., 1996; Chiron et al., 1997; Lux et al., 2004).
Animals were anesthetized by intraperitoneal injection (0.8 to 1.2 ml/kg) of a solution containing ketamine (40 mg/ml) and xylazine (4 mg/ml Rompum). They were then perfused first with heparin 1000 UI/ml in saline solution (0.9% NaCl), then with fixative containing 4% Paraformaldehyde (Merck chemicals ref.: 100496) and 0.2% glutaraldehyde (fluka 25%). Eye cups were isolated and fixed overnight at 4° C. in 4% (wt/vol) paraformaldehyde in phosphate buffered saline (PBS; 0.01M, pH 7.4). The tissue was cryoprotected in successive solutions of PBS containing 10%, 20% and 30% sucrose at 4° C., oriented along the dorso-ventral axis and embedded in OCT (Labonord, Villeneuve d'Ascq, France). Retinal sections (8-10 μm thickness) were permeabilised for five minutes in PBS containing 0.1% Triton X-100 (Sigma, St. Louis, Mo.), rinsed, and incubated in PBS containing 1% bovine serum albumin (Eurobio, Les-Ulis, France), 0.1% Tween 20 (Sigma), and 0.1% sodium azide (Merck, Fontenay-Sous-Bois, France) for two hours at room temperature. The primary Brn3A monoclonal antibody (Chemicon) was added to the solution and incubated for two hours at room temperature. Sections were rinsed and then incubated with the secondary antibody, rabbit anti-mouse IgG conjugated to either Alexa™594 (1:500, Molecular Probes) for two hours. […] Quantifications were achieved on whole vertical sections cut along the dorso-ventral axis and crossing the optic nerve. […]

[4] = system: glutamate N-methyl-D-aspartate (NMDA) receptors; conditions: Seki M et al., 2008; cited from earlier work
[5] = system: retinal ganglion cells; experiment: Episcleral vein occlusion rat model of glaucoma (taurine plasma level, IOP, photopic ERG, Brn-3a RGC count); assay type: in vivo, Long-Evans rats; conditions: taurine 0.2 M in drinking water, 3 months after occlusion, vs water animals; statistically significant
Method: Long-Evans rats (8-week old) were purchased from Janvier (Le Genest-St-Isle, France) whereas DBA/2J mice (8-month old) were purchased from Charles River (Larbresle, France). Heterozygous P23H rats (line 1) and Sprague Dawley rats (n=7) were bred at Charles River (Saint Aubin-les-Elbeuf, France).
Occlusion of episcleral veins was performed on 8 week-old Long-Evans or Wistar rats as described previously (Mittag et al., 2000). Animals were anesthetized with a mixture Ketamine (100 mg/Kg; Virbac, France) and, Xylazine (10 mg/Kg; Bayer, Leverkusen, Germany), and a local anesthesia (Tetracaine, Laboratoires TVM, Lempdes, France) were administrated on the cornea. At the level of the right eye, three episcleral veins, superonasal, superotemporal and inferotemporal, were emerged by removing the conjunctive tissue. Vein occlusion was realized by cauterization, using Aesculap® bipolar forceps (B. Braun, Melsungen, Germany). […]
IOP was measured from right and left eyes on awake animals using a Tonolab tonometer (Icare, Helsinki, Finland). The tonometer was applied perpendicularly to the cornea and three successive measures were recorded and the average was taken for the final value of IOP.
Photopic ERGs were performed on cauterized and control eyes from rats and DBA2/J mice. […] ERG were recorded using two gold loop electrodes were placed on the corneal surface of each eye and maintained with 3% Ocry-gel. […]

[6] = system: retinal ganglion cells; experiment: P23H rat model of retinitis pigmentosa, Brn3a immunopositive RGC count in retinal sections; assay type: in vivo, heterozygous P23H rats
From the text: Long-Evans rats (8-week old) were purchased from Janvier (Le Genest-St-Isle, France) whereas DBA/2J mice (8-month old) were purchased from Charles River (Larbresle, France). Heterozygous P23H rats and Sprague Dawley rats (n=7) were bred at Charles River (Saint Aubin-les-Elbeuf, France). For taurine supplementation, animals were divided in two groups: a control group and a group receiving taurine in its drinking water. […] Animals drinking water without added taurine were always considered as control animals.
Animals were anesthetized and killed by cerebral dislocation and their eyes were removed and placed into a fixative solution containing 4% paraformaldehyde (Merck chemicals, Darmstadt, Germany) for 24 hours. Eye cups were isolated and cryoprotected in successive solutions of PBS containing 10%, 20% and 30% sucrose at 4° C., oriented along the dorso-ventral axis and embedded in NEG50® (Microm, Francheville, France). Retinal sections were permeabilized for five minutes in PBS containing 0.1% Triton X-100 (Sigma, St. Louis, Mo.), rinsed, and incubated in PBS containing 1% bovine serum albumin (Sigma) and 0.05% Tween 20 (Sigma) for one hour at room temperature. […] Quantifications were achieved on whole vertical sections cut along the dorso-ventral axis and crossing the optic nerve. […]

[7] = system: retinal ganglion cells; experiment: DBA/2J mice, model of pigmentary glaucoma (taurine plasma level, photopic ERG); assay type: in vivo; conditions: 12-month old DBA/2J mice, taurine supplementation for 4 months vs pure water
Method: Photopic ERGs were performed on cauterized and control eyes from rats and DBA2/J mice. Animals were anesthetized by an intramuscular injection with a solution containing a mixture of Ketamine (100 mg/Kg) and, Xylazine (10 mg/Kg). Pupils were dilated by a topical application of Mydriaticum, Laboratoires Thea, Clermont-Ferrand, France). ERG were recorded using two gold loop electrodes were placed on the corneal surface of each eye and maintained with 3% Ocry-gel. These recording electrodes were respectively referenced with two steel electrodes, inserted sub-cuteanously at the level of each cheek of animals. A needle electrode, also inserted sub-cuteanously, at the level of the basis of the tail served as ground. Responses to light stimulus were amplified, filtered and digitalized using the “Multiliner vision” program.
Statistical analysis of the results was performed on raw data. An unpaired student t test was used to compare means of 2 groups. For more than 2 groups compared, a one-way ANOVA was used for variance analysis, followed in case of significance by a Bonferroni post-hoc test to compare the means of each group. Differences were considered significant at *P<0.05; **P<0.01; and ***P<0.001.

[8] = system: pure adult rat RGC in culture; experiment: Survival of pure cultured retinal ganglion cells (live-dead viability test, 6 DIV vs 1 DIV); assay type: cell-based, Long Evans rat; conditions: 1 mM taurine, 6 days in culture
From the text: Primary cultures of pure ganglion cells: Primary cultures of retinal ganglion cells (RGC) were isolated from retinae of adult Long Evans rat (8-week old) with an immunopanning technique, according the protocol previously described in young rats by Barres et al. (1988). Briefly, animals were anesthetized and killed by cerebral dislocation and their eyes removed and placed in a solution of phosphate-buffered saline (PBS) containing 1 g/1 of glucose (PBS-glucose; Invitrogen, Carlsbad, Calif., USA). After one rinse in PBS-glucose, retinae were incubated in the same medium containing 33 UI/ml of papain (Worthington, Lakewood, N.J., USA) and 200 UI/ml of DNAse (Sigma-Aldrich, St-Louis, MO, USA) for 30 min at 37° C. They were then rinsed in PBS-glucose, containing 0.15% ovomucoid (Roche Diagnosis, Basel, Switzerland) and 0.15% bovine serum albumin (BSA; Sigma-Aldrich). […]
RGC viability was assessed with the “lived-dead” test (Invitrogen), which consists in labelling viable cells with calcein AM detected as a green fluorescence, whereas dead cell were labelled with ethidium producing a red fluorescence. […] Only lived RCG were counted from seven fields taken on each coverslip using a microscope (Leica DM 5000B, Solms, Germany) equipped for epifluorescence. Viable RCG were counted at 1 day in vitro (DIV) and 6 DIV to calculate the percentage of cell survival.

## CN[C@H](CC(=O)O)C(=O)O [NMDA, N-methyl-D-aspartate, reference compound]
[1]; 100 μM NMDA for 4 days, control 996.0±26.5, n=31
  RGC density (Brn-3a-immunopositive): 555.6±31.8 cells/mm2
[1]; 100 μM NMDA for 4 days, p<0.001
  reduction in RGC density vs control: −44%

## C=CC(N)CCC(=O)O (stereo not drawn) [VGB, Vigabatrin]
[2]
  optic nerve atrophy: induced an optic nerve atrophy
[3]; young rats treated with VGB, p<0.001
  decrease in number of retinal ganglion cells vs control: 56%
[3]; young rats, VGB 0.6 mg/day i.p. for 25 days from age 4 days, control 15.06±0.93, s.e.m., n=10
  number of retinal ganglion cells (Brn3A-positive, retinal sections): 6.56±0.32

## CC12CC3CC(C)(C1)CC(N)(C3)C2 [memantine]
[4]
  RGC neuroprotection in models of glaucoma: exert an RGC neuroprotection

## NCCS(=O)(=O)O [taurine, 2-aminoethanesulfonic acid]
[5]
  decrease in photopic ERG amplitudes on operated eye: less important than in animals without taurine supplementation
[6]; taurine 0.1 M in drinking water from 9 to 12 months, n=6, untreated P23H 298±12, Sprague-Dawley control 411±19, mean±SEM
  average RGC number (brn3a immunopositive, retinal sections): 344±8
[6]; taurine 0.1 M in drinking water, P<0.01 vs untreated P23H
  RGC loss prevented: 40%
[7]
  decrease in photopic ERG amplitudes: partially prevented
[1]; 100 μM NMDA plus 1 mM taurine for 4 days
  cell loss rescued by co-incubation with NMDA: 22%
[1]; 100 μM NMDA plus 1 mM taurine for 4 days, n=23, p<0.05 vs NMDA
  RGC density (Brn-3a-immunopositive): 655.7±44.4 cells/mm2
[8]
  increase in number of surviving cells vs control conditions: 49%
[8]; control conditions 18.2±1.8%, mean±SEM
  RGC survival at 6 DIV as percentage of that at 1 DIV: 27.2±3.7%
[3]; VGB-treated rats with taurine supplementation, p<0.001
  number of retinal ganglion cells greater than in VGB-treated group without supplementation: 84.9%

Reference: US20160206579A1 (INSERM (Institut National de la Santé et de la Recherche …, priority 2009, published 2016)
